One series relates to AA mice. Also noted: method as in PMID 25129481. The conditions noted are these: 12 weeks of treatment, 3 months follow up; cited from earlier work.
The subject of series [1] is Human Peripheral Blood Mononuclear Cells (PBMCs). In words: Cytokine release from anti-CD3-stimulated human PBMCs. The class given is cell-based. The following applies: during stimulation with anti‐CD3, 40–48 h. On the procedure:
Human Peripheral Blood Mononuclear Cells (PBMCs) were isolated by Sepmate technique (Stemcell Technologies) from heparinized venous blood from healthy volunteers. Primary human CD8^+ T‐cells were further isolated using a CD8^+ T cell Isolation Kit according to protocol (Miltenyi Biotec). Experiments were approved by the local ethical committee in Gothenburg (033‐11).
Soluble anti‐CD28 were added to the CD8^+ cultures to facilitate co‐stimulation. After 40–48 h, supernatants were harvested for mediator analysis and the cells were washed and resuspended in RLT buffer (Qiagen) for RNA isolation.
Analysis of human cytokine panels was carried out using a Luminex assay kit from Merck Millipore (Cat# HCYTMAG‐60K‐PX41) and Mesoscale Discovery (MSD) immunoassay kits (Cat# K211AEB‐2 and K15049D) as recommended in the respective supplier protocols.

The next series concerns IL‐13, STAT6‐Luc. In words: IL-13-induced JAK-STAT6-luciferase assay in U937 monocytes. The class given is cell-based. The following applies: Homo sapiens, U-937, interleukin at EC80.
Series [2] is described as follows: Solubility in phosphate buffer. The class given is physicochemical. The following applies: pH 7.4, aqueous buffer. From the text:
TABLE 1 In vitro potency and selectivity of JAK inhibitors | column: Solubility (μM) ^c

The next series relates to IL‐4, STAT6‐Luc. In words: IL-4-induced JAK-STAT6-luciferase assay in U937 monocytes. The class given is cell-based. The following applies: Homo sapiens, U-937, interleukin at EC80.
A short description of series [3]: Plasma and skin exposure in treated AA mice. The conditions noted are these: 3% cream topically, one hour after application.

Converted amounts (≈) assume the structure as drawn. “And” between values parts separate entries of the source, which are not always exact repeats. Identical values can stand only once.

`N#CC[C@H](C1CCCC1)n1cc(-c2ncnc3[nH]ccc23)cn1` [Ruxolitinib, reference compound]: in the series on AA mice, the remission after treatment result is on record as “induced stable remission”. Further, the “release of IL‐1RA from PBMCs” value in series [1] is recorded as “dramatically increased”. Moreover, the IC50 with IL‐13, STAT6‐Luc came out at 82 nM; in the series on IL‐4, STAT6‐Luc, 110 nM. Besides, the concentration in solution in series [2] (solubility) came to 678 µM (≈ 208 µg/mL).
`C[C@@H]1CCN(C(=O)CC#N)C[C@@H]1N(C)c1ncnc2[nH]ccc12` [Tofacitinib, reference compound]: the remission after treatment result with AA mice is listed as “induced stable remission”. For the same compound, the “release of IL‐1RA from PBMCs” value in series [1] is “dramatically increased”. In addition, the “unbound plasma exposure over IC50” value in series [3] is 3–7 fold IC50 and 5 fold IC50. In addition, the solubility in series [2] was > 1000 µM.

Source of the values: PMC10233092, “Selective Janus kinase 1 inhibition resolves inflammation and restores hair growth offering a viable treatment option for alopecia areata” (Skin Health and Disease, 2023).
